Series [1] is described as follows: Percent organic elution in reverse-phase HPLC (C18) as lipophilicity readout. It counts as physicochemical. The conditions noted are these: for HPLC % B: Table 12, C18, A=water+0.1% TFA, B=acetonitrile+0.1% TFA. The text has this: The predicted increase in lipophilicity for wyvay (SEQ ID NO:2) was experimentally confirmed by the percent organic (% B) elution during reverse-phase HPLC (RP-HPLC) using a C18 column where solvents A=water+0.1% TFA and B=acetonitrile+0.1% TFA.

Series [2] has as its target T1, His-tagged IDO1 human recombinant protein (Homo sapiens, UniProt P14902).
T1 construct: purchased BPS Biosciences 71182
Description: IDO1 ELISA (Affinity Assay): sandwich ELISA, biotinylated ligand immobilized on NEUTRAVIDIN plate. The format is binding.

In the next series the target is murine IDO1 protein (Mus musculus, UniProt P28776). Description: ELISA against murine IDO1 protein (species cross-reactivity). The format is binding. On the procedure: Protocol: A black 96-well NEUTRAVIDIN® Coated High Binding Capacity plate (15510, Pierce) was coated with 2 μM biotinylated macrocyclic peptide ligand in TBS (25 mM Tris-HCl, 150 mM NaCl, pH 7.6) for 2 h at room temperature. The plate was aspirated and then washed with Wash Buffer (0.05% (v/v) TWEEN® 20 in PBS, 6×). His-tagged IDO1 human recombinant protein (71182, BPS Biosciences) was serially diluted in Wash Buffer (from 200 to 0 nM) and incubated in the designated microwells for 1 h at room temperature. Microwells were aspirated and subsequently washed with Wash Buffer (11×). To detect the bound IDO1 protein, Alkaline Phosphatase (AP)-conjugated Anti-6×HIS TAG® antibody [HIS-1] (ab49746, Abcam) was prepared at 1:10,000 dilution and added to the microwells for 1 h at room temperature. The plate was aspirated and washed with Wash Buffer (5×). ATTOPHOS® AP Fluorescent Substrate System (S1000, Promega) was employed to develop the microwells. Using an excitation wavelength of 430 nm, fluorescent emission at 535 nm was recorded by Beckman Coulter DTX880 photometer. Titration curves were fit using a four-parameter regression curve fitting program to determine EC50 values.
murine IDO1 protein, sequence (P28776 whole entry): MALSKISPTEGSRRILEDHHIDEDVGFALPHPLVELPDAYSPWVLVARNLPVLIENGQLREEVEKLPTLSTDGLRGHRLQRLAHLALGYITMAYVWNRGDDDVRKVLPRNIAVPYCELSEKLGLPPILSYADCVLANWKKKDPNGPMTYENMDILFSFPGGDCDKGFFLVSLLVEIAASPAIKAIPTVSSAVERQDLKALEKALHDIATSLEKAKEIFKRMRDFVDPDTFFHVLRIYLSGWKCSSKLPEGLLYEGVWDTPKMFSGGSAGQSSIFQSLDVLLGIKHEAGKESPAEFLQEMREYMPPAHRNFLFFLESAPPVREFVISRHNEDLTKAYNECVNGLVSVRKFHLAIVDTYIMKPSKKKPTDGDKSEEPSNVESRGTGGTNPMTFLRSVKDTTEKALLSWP
To test for cross-reactivity with murine IDO1, the human IDO1 targeted macrocyclic peptide ligands were assayed against the murine IDO1 protein by ELISA.
Background: An ELISA detects its analyte on a solid surface through an enzyme-linked reagent.

The next series deals with HeLa cells. The series is described as follows: Cellular internalization of fluorescent IDO1 ligands (flow cytometry). The format is cell-based. The following applies: Cy5 or FITC label, flow cytometry. On the procedure: Internalization of fluorescently labeled peptides (using Cy5 or FITC) was measured by concentration dependent flow cytometry of unstimulated HeLa cells incubated for one hour with the peptide. […] Internalization was also testing using a cellular inhibition assay, which occurs over 48 hours (rather than the one hour for the flow cytometry assay). Internalized FITC-wyvay (SEQ ID NO:2) at 48 hours was compared to one hour in both unstimulated and stimulated HeLa cells (Table 13). Cell penetration of FITC-wyvay (SEQ ID NO:2) increases with time; more internalized FITC-wyvay (SEQ ID NO:2) can be detected at 48 hours compared to one hour. After one hour, no difference in intracellular staining of FITC-wyvay (SEQ ID NO:2) is observed in unstimulated versus stimulated cells. At 48 hours, there is a slight increase in intracellular FITC-wyvay (SEQ ID NO:2) in stimulated compared to unstimulated cells.
Protocol: HeLa cells were cultured to confluence (˜500,000 cells) in 6-well plates in cell culture medium (DMEM+10% Fetal Bovine Serum (FBS)+1% Penicillin/Streptomycin) or in cell culture medium containing 100 ng/mL IFNγ to stimulate IDO1 expression. The cells were treated with 2 μM or 8 μM macrocyclic IDO1 ligand labeled with either Cy5 or FITC for either 1 hour, 24 hours, or 48 hours as indicated. After treatment, the ligands were aspirated and the cells were washed twice with 1× Phosphate Buffered Saline (PBS). The cells were then harvested by treatment with 0.05% Trypsin-1×EDTA for 5 min at 37° C. Trypsin was quenched by the addition of PBS+2% FBS. The cells in suspension were washed twice in PBS+2% FBS, then resuspended in 500 μL PBS+2% FBS and analyzed for Cy5 or FITC fluorescence using a BD LSR Fortessa X-20 flow cytometer or/and ImageStream X Mark II imaging flow cytometer. Flow Cytometry Standard (fcs) data files were analyzed using FlowJo Software version 10.
On the technique in general: Flow cytometry measures light scatter and fluorescence of single cells or particles in a stream.

The target of series [3] is T1, His-tagged IDO1 human recombinant protein. The series is described as follows: IDO1 ELISA (Affinity Assay): sandwich ELISA, biotinylated ligand immobilized on NEUTRAVIDIN plate. The conditions noted are these: a solution of 200 nM macrocycle was immobilized; read-out: EC50, sandwich ELISA for human IDO1 protein against biotin-PEG3-modified macrocycle. The format is binding.

Entries after “also recorded” stand apart in the source; their conditions may differ. Like-named read-outs stand apart in the source and are kept apart here. Numbered stars: 1 amine (or outer) side, 2 acyl side, 3 side chain; on linkers, the order of the positions; unused ones are H or OH. Bridge positions count the residues as written; N and C are the ends. Square brackets hold non-standard residues; d marks the D form. Triazole bridges read from a SMILES are 1,4-linked. Peptide text beside a SMILES is read from it. * marks the point of attachment. Biotinyl(3aR,4R,6aS) = O=C1N[C@@H]2[C@@H](CS[C@@H]2CCCCC(=O)*)N1; NH(CH2CH2O)5CH2CO = O=C(COCCOCCOCCOCCOCCN[*:1])[*:2]; dTrp(1-Me) = Cn1cc(C[C@@H](N)C(=O)O)c2ccccc21; X1 = O=C(CSc1nonc1/C(=N/O)Nc1ccc(F)c(Br)c1)*; Lys(N3) = [N-]=[N+]=NCCCC[C@H](N)C(=O)O; AEEEA = NCCOCCOCCOCC(=O)O; Pra = C#CC[C@H](N)C(=O)O; βAla = NCCC(=O)O

T1 sequence (P14902 whole entry): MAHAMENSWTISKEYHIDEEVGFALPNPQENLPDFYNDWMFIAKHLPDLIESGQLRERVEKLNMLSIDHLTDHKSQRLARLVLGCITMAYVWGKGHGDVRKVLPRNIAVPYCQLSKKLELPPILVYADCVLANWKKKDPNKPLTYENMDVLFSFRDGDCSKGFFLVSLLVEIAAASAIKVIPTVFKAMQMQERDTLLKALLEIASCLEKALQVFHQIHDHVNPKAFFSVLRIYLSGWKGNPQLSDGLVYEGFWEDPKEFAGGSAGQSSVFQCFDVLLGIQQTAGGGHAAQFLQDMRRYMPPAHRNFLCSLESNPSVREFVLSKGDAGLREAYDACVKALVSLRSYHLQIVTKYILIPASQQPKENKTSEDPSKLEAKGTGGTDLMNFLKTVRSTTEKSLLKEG

The term EC50 denotes the concentration giving half of the maximal effect. On to `C[C@H]1NC(=O)[C@@H](CCCNC(=N)N)NC(=O)[C@@H](Cc2ccc(O)cc2)NC(=O)[C@@H](Cc2c[nH]c3ccccc23)NC(=O)[C@@H](NC(=O)COCCOCCOCCNC(=O)CCCC[C@H]2SC[C@H]3NC(=O)N[C@H]32)CC2=CC(CCCC[C@@H](C(N)=O)NC(=O)[C@@H](Cc3ccc(O)cc3)NC1=O)N=N2` (some centres unmarked) [wyray, biotin-PEG3-Cy(wyray)], for which the “HPLC % B” value in series [1] came to 25.7%. Moreover, the 50% effective concentration (EC50) in series [2] (2 μM biotinylated macrocycle immobilized, human IDO1 titrated 200 to 0 nM, read-out: EC50, sandwich ELISA for human IDO1 protein against biotin-PEG3-modified macrocycle) is 25 nM; in series [2] (Example 9, read-out: Binding affinity (EC50) of prioritized Epitope 1 hits), 25 nM; in series [2] (Table 12, read-out: EC50), 25 nM. On murine IDO1 protein (FIG. 2F), the “Selectivity human versus mouse IDO1 by ELISA” value is “selectivity for the human recombinant protein over mouse is observed”.

As for `CC(C)[C@H]1NC(=O)[C@@H](Cc2ccc(O)cc2)NC(=O)[C@@H](Cc2c[nH]c3ccccc23)NC(=O)[C@@H](N)Cc2cn(nn2)CCCC[C@@H](C(N)=O)NC(=O)[C@@H](Cc2ccc(O)cc2)NC(=O)[C@@H](C)NC1=O` [wyvay] (H-[Pra][dW][dY][dV][dA][dY][Lys(N3)]-NH2; triazole 1-7), the “Internalization of fluorescently labeled peptide, in words” value in the series with HeLa cells is “dose response cellular uptake; also recorded: Concentration dependent internalization”. Besides, the “HPLC % B” value in series [1] turned out to be 33.4%. Also, the half-maximal effective concentration (EC50) in series [2] (Table 12, read-out: EC50) came to 45 nM; in series [2] (binding analysis of VHL-linked Epitope 2 ligand, read-out: EC50), 45 nM. The “Binding to human IDO1 by ELISA, in words” value in series [2] (alanine scan, 3-mer/4-mer and substituted variants compared with parent macrocycle) is “modest loss in binding affinity”.

With `CC(C)[C@H]1NC(=O)[C@@H](Cc2ccc(O)cc2)NC(=O)[C@@H](Cc2c[nH]c3ccccc23)NC(=O)[C@@H](NC(=O)COCCOCCOCCOCCOCCNC(=O)CCNC(=O)CSc2nonc2/C(=N/O)Nc2ccc(F)c(Br)c2)Cc2cn(nn2)CCCC[C@@H](C(N)=O)NC(=O)[C@@H](Cc2ccc(O)cc2)NC(=O)[C@@H](C)NC1=O` [Inh-BA-PEG5-wyvay] ({X1-βAla}-[NH(CH2CH2O)5CH2CO][Pra][dW][dY][dV][dA][dY][Lys(N3)]-NH2; triazole 2-8; N-terminus and C-terminus assumed), in series [1] (Table 16), the “% MeCN” value came out at 46.90%.

For the molecule `Cn1cc(C[C@H]2NC(=O)[C@@H](CO)NC(=O)[C@@H](Cc3ccc(O)cc3)NC(=O)[C@@H](CCCNC(=N)N)NC(=O)[C@@H](NC(=O)COCCOCCOCCNC(=O)CCCC[C@H]3SC[C@H]4NC(=O)N[C@H]43)Cc3cn(nn3)CCCC[C@@H](C(N)=O)NC(=O)[C@@H](CCCNC(=N)N)NC2=O)c2ccccc21` [rys(Me-Trp)r, biotin-PEG3-Cy(rys(Me-Trp)r)] ({Biotinyl(3aR,4R,6aS)-AEEEA}-[Pra][dR][dY][dS][dTrp(1-Me)][dR][Lys(N3)]-NH2; triazole 1-7), the EC50 in series [2] (Table 10, read-out: Human IDO EC50) was 91 ± 22 nM; on murine IDO1 protein (Table 10, read-out: Mouse IDO EC50), 17 nM; in series [3], 81 nM.

Source of the values: patent publication US12216122B2, “Compositions and methods relating to detection, inhibition, and imaging of indoleamine 2,3-dioxygenase 1 (IDO1)” (Regeneron Pharmaceuticals, Inc., priority 2019, dated 2025).
